Some test systems named below: HCT-15; A549; SF-539; SNB-75; 786-0; UACC-257; SK-MEL-28; M14; SN12C; U-251; SW-620; HCT-116; HOP-62; CCRF-CEM; A498; SF-268; NCI-H522.
What all share (experiment): DTP human tumour cell line panel, 48 h

Molecules are shown by their SMILES.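 1) Cells in 96-well plates. 2) Compound, 48 h, 5 concentrations. 3) Linear interpolation between surrounding doses. 4) Unreached endpoint = highest concentration. GI50: concentration for 50% inhibition of growth.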 The source made the active and inactive calls. No stated cut-off is given here; in the data, active = GI50 up to about 1.1 µM and inactive = higher.

As for `Nc1ncnc2c1N=CN(Oc1ccccc1)N2`, the GI50 was greater than 100 µM in the assay with HCT-15; > 100 µM (inactive) with A549; > 100 µM (inactive) in the assay with SF-539; 14 µM (inactive) in the assay on SNB-75; > 100 µM (inactive) in the assay with 786-0; > 100 µM (inactive) with UACC-257. The GI50 in the assay with SK-MEL-28 was > 100 µM (inactive); in the assay with M14, > 100 µM (inactive); with SN12C, 21.5 µM (inactive); in the assay with U-251, > 100 µM (inactive); in the assay with SW-620, > 100 µM (inactive); in the assay on HCT-116, > 100 µM (inactive).

Turning to `C/C(=N\NS(=O)(=O)c1ccccc1)c1ccc(Cl)c(Cl)c1`, the GI50 in the assay on HCT-15 was 57 µM; in the assay with HOP-62, 61.5 µM (inactive); in the assay with CCRF-CEM, > 100 µM (inactive); in the assay on A549 it was 46.2 µM (inactive); with SF-539, 43 µM (inactive); in the assay with SNB-75 it was 50 µM (inactive). In addition, the GI50 is 41.8 µM (inactive) with A498; 82.2 µM (inactive) in the assay on 786-0; 50 µM (inactive) with UACC-257; > 100 µM (inactive) in the assay with SF-268; 63.4 µM (inactive) in the assay on SK-MEL-28; 45.3 µM (inactive) with M14. Moreover, the GI50 was 45.4 µM (inactive) in the assay on SN12C, 37.2 µM (inactive) with U-251, > 100 µM (inactive) in the assay with SW-620 and 50.9 µM (inactive) in the assay on HCT-116.

Regarding `COC1CC(n2cnc3c(N)ncnc32)OC1CO` (stereo not drawn), the GI50 with HCT-15 is greater than 100 µM; with HOP-62, > 100 µM (inactive); with CCRF-CEM it was 56 µM (inactive); in the assay on A549, > 100 µM (inactive); in the assay with SF-539 it was > 100 µM (inactive); in the assay on SNB-75 it was > 100 µM (inactive). Also, the GI50 in the assay on 786-0, in the assay with UACC-257, in the assay with SF-268, in the assay on SK-MEL-28, in the assay with M14 and in the assay with U-251 was > 100 µM (inactive) each time. Further, the GI50 with NCI-H522, in the assay on SW-620 and in the assay with HCT-116 was > 100 µM (inactive) in each case.

Take `COc1ccc2cc3nc(O)cc(O)c3cc2c1OC`: the GI50 in the assay on HCT-15 was greater than 100 µM; in the assay on HOP-62 it was > 100 µM (inactive); in the assay on CCRF-CEM, > 100 µM (inactive); in the assay on A549, > 100 µM (inactive); with SF-539, > 100 µM (inactive); in the assay on SNB-75, > 100 µM (inactive). The GI50 with A498, in the assay with 786-0, with UACC-257, in the assay on SF-268, in the assay on SK-MEL-28 and in the assay with M14 was > 100 µM (inactive) in each case. Further, the GI50 in the assay on SN12C, in the assay on U-251, with SW-620 and in the assay on HCT-116 was > 100 µM (inactive) throughout.

Turning to `COc1ccc(C2=NNC(=O)OC2c2ccccc2)cc1` (stereo not drawn), the GI50 is 37.7 µM in the assay with HCT-15; > 100 µM (inactive) in the assay with HOP-62; 48.3 µM (inactive) in the assay with CCRF-CEM; 51.5 µM (inactive) in the assay on A549; > 100 µM (inactive) with SF-539; 28.1 µM (inactive) with SNB-75. For the same compound, the GI50 is 49.4 µM (inactive) with A498; > 100 µM (inactive) in the assay on 786-0; 28.9 µM (inactive) in the assay with UACC-257; 72.6 µM (inactive) in the assay with SF-268; > 100 µM (inactive) in the assay on SK-MEL-28; 50.7 µM (inactive) with M14. Besides, the GI50 in the assay with SN12C is > 100 µM (inactive); with U-251, > 100 µM (inactive); with SW-620, 38.9 µM (inactive); with HCT-116, > 100 µM (inactive).

For `CCCC(=O)N[C@@H](Cc1cc(I)c(O)c(I)c1)C(=O)NCCCNCCCCNCCCNC(=O)[C@@H](N)CCCN=C(N)N`, the GI50 is greater than 100 µM with HCT-15; 33.8 µM (inactive) in the assay with HOP-62; > 100 µM (inactive) with CCRF-CEM; > 100 µM (inactive) in the assay on A549; 10.4 µM (inactive) with SF-539; 73.3 µM (inactive) in the assay with 786-0. For the same compound, the GI50 was > 100 µM (inactive) in the assay on UACC-257; > 10 µM (inactive) in the assay on SF-268; 50.4 µM (inactive) in the assay on SK-MEL-28; 25.7 µM (inactive) with M14; > 100 µM (inactive) with SN12C; > 100 µM (inactive) with U-251. Also, the GI50 in the assay with NCI-H522 is 11.2 µM (inactive); with SW-620, > 100 µM (inactive); in the assay with HCT-116, 67 µM (inactive).

`CC(=O)CC(=O)ON(C)C(C)=O`: the GI50 with HOP-62, in the assay on CCRF-CEM, with A549, in the assay on SF-539, in the assay on SNB-75 and in the assay on 786-0 was > 100 µM (inactive) each time. The GI50 in the assay with UACC-257 was 7.69 µM (inactive); with SF-268 it was > 100 µM (inactive); in the assay on SK-MEL-28, > 100 µM (inactive); in the assay on M14, > 100 µM (inactive); in the assay with SN12C, > 100 µM (inactive); in the assay on U-251, > 100 µM (inactive). In addition, the GI50 in the assay with NCI-H522, in the assay on SW-620 and in the assay on HCT-116 was > 100 µM (inactive) in each case.

Consider `O=C(O)c1ccc(O)c(/N=N/c2cc(S(=O)(=O)O)c3ccccc3c2O)c1`, for which the GI50 is greater than 10 µM with HCT-15; 19.6 µM (inactive) in the assay on HOP-62; > 100 µM (inactive) in the assay with A549; > 10 µM (inactive) in the assay with SF-539; > 100 µM (inactive) with SNB-75; > 100 µM (inactive) with A498. The GI50 with 786-0 is > 100 µM (inactive); in the assay on UACC-257 it was > 10 µM (inactive); with SF-268, > 10 µM (inactive); in the assay on SK-MEL-28, > 100 µM (inactive); in the assay with SN12C, > 100 µM (inactive); with U-251 it was > 100 µM (inactive). Further, the GI50 was > 100 µM (inactive) in the assay with SW-620 and 20 µM (inactive) in the assay with HCT-116.

As for `C/C(CC(=O)Nc1ccc(C)c(C)c1)=N\NC(N)=S`, the GI50 in the assay on HOP-62, with CCRF-CEM, in the assay on A549, in the assay on SF-539, with SNB-75 and in the assay with 786-0 was > 100 µM (inactive) each time. Besides, the GI50 with UACC-257, in the assay on SF-268, with SK-MEL-28, in the assay on M14, in the assay with U-251 and with NCI-H522 was > 100 µM (inactive) in each case. The GI50 in the assay on SW-620 and in the assay with HCT-116 was > 100 µM (inactive) throughout.

As to `C=C(C(=C)N1N=NC2C3CCC(C3)C21)N1N=NC2C3CCC(C3)C21` (stereo not drawn), the GI50 is > 100 µM (inactive) with HOP-62; 24.9 µM (inactive) in the assay with CCRF-CEM; > 100 µM (inactive) in the assay on A549; > 100 µM (inactive) in the assay with SF-539; 55.1 µM (inactive) in the assay with SNB-75; > 100 µM (inactive) with 786-0. Moreover, the GI50 in the assay on UACC-257, with SF-268, in the assay on SK-MEL-28, in the assay with M14, in the assay with SN12C and in the assay on U-251 was > 100 µM (inactive) throughout. Besides, the figures for the GI50 with NCI-H522, with SW-620 and in the assay with HCT-116 were 66.5 µM (inactive), > 100 µM (inactive) and > 100 µM (inactive), respectively.

The GI50 is the concentration giving 50% growth inhibition.

For the origin of these results see ChEMBL document CHEMBL1201862, “PubChem BioAssay data set” (2004).
